In ChEMBL document CHEMBL1759930, “Structural requirements of (E)-6-benzylidene-4a-methyl-4,4a,5,6,7,8-hexahydronaphthalen-2(3H)-one derivatives as novel melanogenesis inhibitors” (Bioorg Med Chem Lett, 2011) one finds IC50 and inhibition data, which are given here for 23 compounds.

Where only a bound is given, the exact number is not on record here.

The test system of assay [1] is B16. Description: Inhibition of alpha-MSH -stimulated melanogenesis in mouse B16 cells assessed as melanin release after 3 days. To be noted: B16, 72 h. It counts as functional, cell-based.
In assay [2] the test system is B16. As to the kind of experiment: Inhibition of alpha-MSH -stimulated melanogenesis in mouse B16 cells assessed as melanin release at 10 uM after 3 days. It counts as functional. As to conditions: B16, 72 h.

What is called IC50 is the concentration that gives 50% inhibition. The term inhibition denotes how much of the control response was suppressed. With `CC12CCC3(C=C1CC/C(=C\c1ccccc1)C2=O)SCCS3` (stereo not given), in assay [1], the IC50 worked out at 10.5 µM. Moreover, in assay [2], the inhibition at 10 µM is 85%.
For `Cc1ccc(/C=C2\CCC3=CC4(CCC3(C)C2=O)SCCS4)cc1` (stereo not given), the IC50 in assay [1] worked out at 17.1 µM. In addition, in assay [2], the inhibition at 10 µM is > 100%.
Consider `CCc1ccc(/C=C2\CCC3=CC4(CCC3(C)C2=O)SCCS4)cc1` (stereo not given), for which the IC50 in assay [1] came out at 18.5 µM. The inhibition at 10 µM in assay [2] turned out to be 80%.
As to `CC12CCC3(C=C1CC/C(=C\c1ccc(C(C)(C)C)cc1)C2=O)SCCS3` (stereo not given), the IC50 in assay [1] amounted to 13.5 µM. For the same compound, the inhibition at 10 µM in assay [2] was determined as 83%.
Taken in the same sequence, the figures for `CC12CCC3(C=C1CC/C(=C\c1ccc(Cl)cc1)C2=O)SCCS3` (stereo not given) were > 30 µM and 35%.
In the same order, the values of `CC12CCC3(C=C1CC/C(=C\c1ccc(Cl)c(Cl)c1)C2=O)SCCS3` (stereo not given) are 25.5 µM and 62%.
For `CC12CCC3(C=C1CC/C(=C\c1cccc4ccccc14)C2=O)SCCS3` (stereo not given), the IC50 in assay [1] amounted to 11.5 µM. Besides, the inhibition at 10 µM in assay [2] is 85%.
Taken in the same sequence, the figures for `CC12CCC3(C=C1CC/C(=C\C=C\c1ccccc1)C2=O)SCCS3` (stereo not given) were 16.5 µM and 75%.
In the same order, the values of `COc1ccc(/C=C2\CCC3=CC4(CCC3(C)C2=O)SCCS4)cc1` (stereo not given) are 3.5 µM and > 100%.
In the same order, the values of `COc1ccc(/C=C2\CCC3=CC4(CCC3(C)C2=O)SCCS4)cc1OC` (stereo not given) are > 30 µM and 43%.
Turning to `COCOc1ccc(/C=C2\CCC3=CC4(CCC3(C)C2=O)SCCS4)cc1` (stereo not given), in assay [1], the IC50 was 6 µM. In addition, in assay [2], the inhibition at 10 µM turned out to be 92%.
With `CC12CCC3(C=C1CC/C(=C\c1ccc(OCc4ccccc4)cc1)C2=O)SCCS3` (stereo not given), the 50% inhibitory concentration (IC50) in assay [1] was found to be 13.5 µM. Moreover, the inhibition at 10 µM in assay [2] was determined as 80%.
Taken in the same sequence, the figures for `CC12CCC3(C=C1CC/C(=C\c1ccc(O)cc1)C2=O)SCCS3` (stereo not given) were 4.3 µM and 96%.
Take `CN(C)c1ccc(/C=C2\CCC3=CC4(CCC3(C)C2=O)SCCS4)cc1` (stereo not given): the IC50 in assay [1] stood at 7.6 µM. Also, the inhibition at 10 µM in assay [2] stood at 65%.
Regarding `Cc1ccc(/C=C2\CCC3=CC(=O)CCC3(C)C2=O)cc1` (stereo not given), the IC50 in assay [1] was determined as 23 µM. For the same compound, in assay [2], the inhibition at 10 µM was 60%.
Taken in the same sequence, the figures for `COc1ccc(/C=C2\CCC3=CC(=O)CCC3(C)C2=O)cc1` (stereo not given) were 6 µM and 72%.
For `CC1CCC/C(=C\c2ccccc2)C1=O` (stereo not given), the IC50 in assay [1] is > 30 µM. For the same compound, the inhibition at 10 µM in assay [2] was < 10%.
Consider `Cc1ccc(/C=C2\CCCC(C)C2=O)cc1` (stereo not given), for which the IC50 in assay [1] was > 30 µM. Besides, in assay [2], the inhibition at 10 µM was < 10%.
Taken in the same sequence, the figures for `CC1CCC/C(=C\c2ccc(Cl)cc2)C1=O` (stereo not given) were > 30 µM and < 10%.
With `COc1ccc(/C=C2\CCCC(C)C2=O)cc1` (stereo not given), in assay [1], the IC50 was > 30 µM. Further, the inhibition at 10 µM in assay [2] is < 10%.
In the same order, the values of `CC1CCC/C(=C\c2ccc(O)cc2)C1=O` (stereo not given) are > 30 µM and < 10%.
For the compound `CC12CCC3(C=C1CCCC2=O)SCCS3` (stereo not given), the concentration for half-maximal inhibition (IC50) in assay [1] was > 30 µM. The inhibition at 10 µM in assay [2] is < 10%.
For the compound `OC[C@H]1O[C@@H](Oc2ccc(O)cc2)[C@H](O)[C@@H](O)[C@@H]1O` [ARBUTIN], the IC50 in assay [1] turned out to be 120 µM.
